Experiment [1] deals with T1, ATP-citrate synthase (Homo sapiens, UniProt P53396).
T1 sequence (P53396 whole entry): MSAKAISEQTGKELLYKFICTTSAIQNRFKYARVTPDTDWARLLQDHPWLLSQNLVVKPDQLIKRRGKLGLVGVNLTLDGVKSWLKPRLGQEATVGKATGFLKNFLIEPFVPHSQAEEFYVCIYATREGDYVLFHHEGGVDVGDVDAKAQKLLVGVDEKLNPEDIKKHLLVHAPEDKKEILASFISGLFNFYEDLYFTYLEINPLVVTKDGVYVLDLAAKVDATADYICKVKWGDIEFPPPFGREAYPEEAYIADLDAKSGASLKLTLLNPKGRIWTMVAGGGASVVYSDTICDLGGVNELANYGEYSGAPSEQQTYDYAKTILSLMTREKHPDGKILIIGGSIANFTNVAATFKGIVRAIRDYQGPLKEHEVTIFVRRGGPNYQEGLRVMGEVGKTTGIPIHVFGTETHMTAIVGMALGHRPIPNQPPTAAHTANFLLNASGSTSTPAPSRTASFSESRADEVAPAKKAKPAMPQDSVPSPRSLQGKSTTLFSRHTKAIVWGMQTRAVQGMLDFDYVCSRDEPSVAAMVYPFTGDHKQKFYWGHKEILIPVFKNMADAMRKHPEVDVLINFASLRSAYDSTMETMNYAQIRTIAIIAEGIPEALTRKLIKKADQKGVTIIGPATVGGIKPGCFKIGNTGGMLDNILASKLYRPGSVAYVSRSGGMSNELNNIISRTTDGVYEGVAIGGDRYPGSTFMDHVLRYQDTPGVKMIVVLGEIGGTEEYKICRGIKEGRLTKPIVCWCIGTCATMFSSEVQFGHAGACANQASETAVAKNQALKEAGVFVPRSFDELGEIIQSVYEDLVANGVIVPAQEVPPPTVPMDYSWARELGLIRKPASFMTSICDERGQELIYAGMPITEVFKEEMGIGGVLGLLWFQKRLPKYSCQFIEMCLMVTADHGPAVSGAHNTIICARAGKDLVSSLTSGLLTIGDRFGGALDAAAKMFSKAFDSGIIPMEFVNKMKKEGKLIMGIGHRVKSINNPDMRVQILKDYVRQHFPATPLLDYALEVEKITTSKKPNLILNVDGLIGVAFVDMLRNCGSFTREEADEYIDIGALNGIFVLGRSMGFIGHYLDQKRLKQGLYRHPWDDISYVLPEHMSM
Put plainly: Inhibition of ACL (unknown origin).

A further experiment addresses Acetyl-CoA carboxylase 1 (Homo sapiens, UniProt Q13085). Put plainly: Inhibition of ACC1 (unknown origin) preincubated for 30 mins followed by ATP addition measured for 60 mins by ADP-Glo luminescence assay. In general terms: ADP-Glo turns the ADP formed in a reaction into a luminescent signal.
In experiment [2] the target is T1, ATP-citrate synthase. Put plainly: Inhibition of ACL (unknown origin) incubated for 30 mins in presence of ATP by ADP-Glo kinase assay.

`COc1ccc(-c2ccccc2)cc1NS(=O)(=O)c1cc(Cl)cc(Cl)c1O`: it took 0.5 µM to reach half-maximal inhibition against ATP-citrate synthase [1] (IC50). As for `CC(=O)O[C@@H]1CC[C@]2(C)[C@@H]3CC[C@]4(C)C(=CC[C@@]4(C)[C@H](C)Cc4cc(C(=O)O)co4)C3=CC[C@H]2C1(C)C`, the IC50 (in general, the concentration needed to halve the response being measured) at Acetyl-CoA carboxylase 1 was 10.2 µM; at ATP-citrate synthase [2], 5.7 µM. For `C[C@H](Cc1cc(C(=O)O)co1)[C@]1(C)CC[C@]2(C)C1=CC[C@@]13C[C@@]14CC[C@@H](O)C(C)(C)[C@@H]4CC[C@H]32` the same measures were 7.5 µM and 6.6 µM. For `C[C@H](Cc1cc(C(=O)O)co1)[C@H]1CC[C@@]2(C)C3=CC[C@H]4C(C)(C)[C@H](O)CC[C@]4(C)[C@@H]3CC[C@]12C` the same measures were 8.9 µM and 8.8 µM.

`C[C@H](CC/C=C(\CO)C(=O)O)[C@H]1CC[C@@]2(C)[C@@H]3CC[C@H]4C(C)(C)[C@H](O)CC[C@@]45C[C@@]35CC[C@]12C`: the figures for the IC50 against Acetyl-CoA carboxylase 1 and at ATP-citrate synthase [2] were 8.4 µM and 11.4 µM, respectively. The like results for `C/C(=C\CC[C@@H](C)[C@H]1CC[C@@]2(C)[C@@H]3CC[C@H]4C(C)(C)[C@H](O)CC[C@@]45C[C@@]35CC[C@]12C)C(=O)O` [ISOMANGIFEROLIC ACID] were, in that order, 10.5 µM and 7.6 µM.

Values taken from ChEMBL document CHEMBL5325451, “Structurally Diverse Triterpene-26-oic Acids as Potential Dual ACL and ACC1 Inhibitors from the Vulnerable Conifer Keteleeria fortunei” (J Nat Prod, 2023).
